Where “and” joins values, the source holds several entries; their conditions need not be identical. Identical values can stand only once. Like-named read-outs stand apart in the source and are kept apart here.
What was measured:
PI3Kβ = PI3Kβ (Homo sapiens, UniProt P42338); test: PI3K kinase activity, β isoform;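 further: kinase reaction containing 1% DMSO, read as an emission ratio, with inhibition scaled between the 0% and 100% control ratios. IC50 values come from a ten-point fourfold dilution series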
Method: (§6) Concentration setting for preliminary screening: the compounds to be tested were dissolved in DMSO (dimethyl sulfoxide) to 100 μM or 10 μM as storage solutions; for each one, 2 μL was taken to be added to 48 μL of 1× Reaction Buffer to obtain a 4 μM or 400 nM compound solution containing 4% DMSO. After well mixing, the mixture was diluted with 4% DMSO in 1× Reaction Buffer to obtain a 4 μM or 400 nM compound solution. 5 μL of each diluted solution was taken to be added to a 384-well plate, so that the final concentration of the compound in the final 20 μL of the kinase reaction system was 1 μM and 100 nM or 100 nM and 20 nM, respectively, and containing 1% DMSO.
(§7) The compounds to be tested were dissolved in DMSO to 1 mM or 10 mM as working solutions, 1 μL of each working solution was taken to be added to 24 μl of 1× Kinase Buffer A to obtain a 40 μM or 400 μM compound solution containing 4% DMSO. The compound solution was diluted by 4× gradient in sequence, 10 dilution concentrations.
(§8) Calculation of the Inhibition Rate • The inhibitory rate was calculated by the following formula: Inhibitory rate=(ERsample−ER0%)/(ER100%−ER0%)×100%

[1] = Preliminary pharmacokinetic test, intravenous injection; assay type: in vivo, SD rats; conditions: 5 mg/kg, rats, intravenous injection 5 mg/kg, tested as monomesylate; for Vd: read-out: Vss
Method: (§1) 1. 14 healthy SD rats, male, weigh 200-220 g, were taken to be randomly divided into 4 groups, 3-4 in each group, and were administered the tested compound P-17 and compound CYH33 (compared with compound P-17, missing a methyl group on 7-position) via intragastric administration (10 mg/kg) and intravenous injection (5 mg/kg) respectively, the specific arrangements are shown in the following table 3:
(§2) The rats were fasted for 12 h before experiment, water was taken freely. The rats were fed 2 h after dosing.
Dosing via intravenous: 5 min, 0.25 h, 0.5 h, 1.0 h, 2.0 h, 4.0 h, 6.0 h, 8.0 h, and 24 h after dosing.
(§3) At the above setting time points, 0.3 ml of venous blood was taken from the retroorbital venous plexus of the rat, and placed in a heparinized test tube, centrifuged at 11,000 rpm for 5 min, then the plasma was separated, and frozen in a refrigerator at −20° C.
(§4) LC/MS/MS method was used to determine the concentration of the compounds in the plasma of rats.
(§5) The non-compartment model of Phoenix 1.3 software (Pharsight Corporation, USA) was used to calculate the pharmacokinetic parameters after dosing.

PI3Kα = PI3Kα (Homo sapiens, UniProt P42336); test: PI3K kinase activity, α isoform
Method: as §6, §7, §8

PI3Kδ = PI3Kδ (Homo sapiens, UniProt O00329); test: PI3K kinase activity, δ isoform
Method: as §6, §7, §8

PI3Kγ = PI3Kγ (Homo sapiens, UniProt P48736); test: PI3K kinase activity, γ isoform; assay type: biochemical;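 further: kinase reaction run in 384-well plates, with inhibition normalised between the 0% and 100% reference reactions. IC50 derived from a ten-point, fourfold serial dilution series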
Method: as §6, §7, §8

[2] = Preliminary pharmacokinetic test, intragastric administration; assay type: in vivo, SD rats; conditions: rats; for half-life: read-out: T½ (converted)
Method: as §1, §2
Dosing via intragastric administration: 0.25 h, 0.5 h, 1.0 h, 2.0 h, 3.0 h, 4.0 h, 6.0 h, 8.0 h, and 24 h after dosing.
as §3, §4, §5

[3] = male, SD, rat, plasma, iv, Mean
[4] = male, SD, rat, plasma, iv, individual animal

Chain of PI3Kβ (P42338 whole entry, canonical isoform): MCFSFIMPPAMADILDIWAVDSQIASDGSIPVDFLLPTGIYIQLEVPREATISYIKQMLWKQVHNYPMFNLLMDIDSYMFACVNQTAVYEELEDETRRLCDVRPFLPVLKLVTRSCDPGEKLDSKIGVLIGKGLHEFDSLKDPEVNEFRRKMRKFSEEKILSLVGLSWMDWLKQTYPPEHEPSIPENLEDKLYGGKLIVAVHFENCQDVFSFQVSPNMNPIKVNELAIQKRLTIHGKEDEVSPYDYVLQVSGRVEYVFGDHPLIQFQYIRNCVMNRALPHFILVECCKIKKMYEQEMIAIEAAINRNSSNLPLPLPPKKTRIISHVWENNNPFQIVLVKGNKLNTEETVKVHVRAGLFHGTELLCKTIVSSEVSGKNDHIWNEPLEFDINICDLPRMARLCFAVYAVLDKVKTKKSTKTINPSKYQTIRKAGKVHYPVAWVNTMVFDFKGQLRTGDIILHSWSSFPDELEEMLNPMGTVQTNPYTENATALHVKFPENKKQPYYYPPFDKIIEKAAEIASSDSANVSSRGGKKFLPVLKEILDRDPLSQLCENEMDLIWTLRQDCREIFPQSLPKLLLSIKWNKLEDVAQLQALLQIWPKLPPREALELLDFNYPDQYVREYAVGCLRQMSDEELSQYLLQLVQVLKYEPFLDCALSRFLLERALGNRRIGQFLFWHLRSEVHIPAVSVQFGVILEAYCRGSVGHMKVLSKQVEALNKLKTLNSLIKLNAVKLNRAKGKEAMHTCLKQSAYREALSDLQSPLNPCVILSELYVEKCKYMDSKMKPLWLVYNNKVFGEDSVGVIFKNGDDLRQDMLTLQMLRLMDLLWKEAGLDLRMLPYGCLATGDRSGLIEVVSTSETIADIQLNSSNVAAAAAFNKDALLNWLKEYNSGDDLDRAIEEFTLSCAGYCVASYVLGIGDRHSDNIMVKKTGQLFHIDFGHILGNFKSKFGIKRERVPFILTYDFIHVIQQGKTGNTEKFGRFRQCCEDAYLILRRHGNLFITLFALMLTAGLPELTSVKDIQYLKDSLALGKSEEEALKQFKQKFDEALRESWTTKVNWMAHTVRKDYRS
Chain of PI3Kβ (P27986 whole entry partner, canonical isoform): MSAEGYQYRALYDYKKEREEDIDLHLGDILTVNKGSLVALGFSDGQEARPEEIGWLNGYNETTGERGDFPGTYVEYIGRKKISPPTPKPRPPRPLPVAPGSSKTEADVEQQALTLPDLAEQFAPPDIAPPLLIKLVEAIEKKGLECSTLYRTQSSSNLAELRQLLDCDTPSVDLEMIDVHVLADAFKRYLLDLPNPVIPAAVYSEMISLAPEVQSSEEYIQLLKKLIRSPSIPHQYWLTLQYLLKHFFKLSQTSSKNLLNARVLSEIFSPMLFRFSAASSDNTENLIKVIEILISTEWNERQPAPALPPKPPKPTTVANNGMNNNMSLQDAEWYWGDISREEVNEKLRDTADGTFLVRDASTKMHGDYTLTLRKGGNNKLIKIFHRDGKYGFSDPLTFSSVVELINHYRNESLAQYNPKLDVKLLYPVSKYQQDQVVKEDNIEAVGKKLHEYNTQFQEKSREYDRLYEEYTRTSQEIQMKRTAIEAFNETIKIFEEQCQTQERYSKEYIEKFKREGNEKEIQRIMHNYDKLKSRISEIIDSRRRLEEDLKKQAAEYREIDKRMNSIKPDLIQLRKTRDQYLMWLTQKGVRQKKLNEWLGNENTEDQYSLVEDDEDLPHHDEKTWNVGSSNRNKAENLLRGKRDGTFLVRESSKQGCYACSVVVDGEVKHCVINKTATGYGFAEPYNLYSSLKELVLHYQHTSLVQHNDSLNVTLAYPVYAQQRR
Chain of PI3Kγ (P48736 whole entry, canonical isoform): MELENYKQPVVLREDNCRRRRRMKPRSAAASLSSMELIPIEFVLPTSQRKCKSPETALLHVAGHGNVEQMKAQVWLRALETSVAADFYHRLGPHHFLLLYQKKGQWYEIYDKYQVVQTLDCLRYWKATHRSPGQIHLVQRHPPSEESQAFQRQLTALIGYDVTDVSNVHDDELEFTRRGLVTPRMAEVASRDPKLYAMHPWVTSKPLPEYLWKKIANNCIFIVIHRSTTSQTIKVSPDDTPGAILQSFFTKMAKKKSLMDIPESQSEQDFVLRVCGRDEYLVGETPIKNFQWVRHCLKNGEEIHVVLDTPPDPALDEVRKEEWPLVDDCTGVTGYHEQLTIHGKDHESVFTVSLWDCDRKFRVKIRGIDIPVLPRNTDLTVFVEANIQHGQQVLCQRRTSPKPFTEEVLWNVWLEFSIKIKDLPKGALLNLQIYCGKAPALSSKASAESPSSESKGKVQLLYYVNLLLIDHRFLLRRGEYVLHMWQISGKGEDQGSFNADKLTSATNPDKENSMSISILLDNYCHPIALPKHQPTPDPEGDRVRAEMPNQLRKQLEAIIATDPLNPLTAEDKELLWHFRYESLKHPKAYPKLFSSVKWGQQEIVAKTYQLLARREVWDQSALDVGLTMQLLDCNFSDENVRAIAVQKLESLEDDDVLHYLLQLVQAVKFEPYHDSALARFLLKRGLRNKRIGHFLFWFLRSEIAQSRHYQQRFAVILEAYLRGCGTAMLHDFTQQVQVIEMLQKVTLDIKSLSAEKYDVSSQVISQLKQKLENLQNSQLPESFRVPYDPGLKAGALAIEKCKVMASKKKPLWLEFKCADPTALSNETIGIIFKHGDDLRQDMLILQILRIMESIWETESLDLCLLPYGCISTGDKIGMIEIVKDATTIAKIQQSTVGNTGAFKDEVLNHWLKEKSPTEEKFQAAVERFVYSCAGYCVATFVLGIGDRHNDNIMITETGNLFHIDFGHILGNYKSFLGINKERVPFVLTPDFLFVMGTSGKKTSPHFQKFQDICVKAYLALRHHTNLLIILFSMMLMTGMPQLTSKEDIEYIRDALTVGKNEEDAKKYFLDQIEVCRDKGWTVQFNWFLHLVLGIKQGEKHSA
Chain of PI3Kα (P42336 whole entry, canonical isoform): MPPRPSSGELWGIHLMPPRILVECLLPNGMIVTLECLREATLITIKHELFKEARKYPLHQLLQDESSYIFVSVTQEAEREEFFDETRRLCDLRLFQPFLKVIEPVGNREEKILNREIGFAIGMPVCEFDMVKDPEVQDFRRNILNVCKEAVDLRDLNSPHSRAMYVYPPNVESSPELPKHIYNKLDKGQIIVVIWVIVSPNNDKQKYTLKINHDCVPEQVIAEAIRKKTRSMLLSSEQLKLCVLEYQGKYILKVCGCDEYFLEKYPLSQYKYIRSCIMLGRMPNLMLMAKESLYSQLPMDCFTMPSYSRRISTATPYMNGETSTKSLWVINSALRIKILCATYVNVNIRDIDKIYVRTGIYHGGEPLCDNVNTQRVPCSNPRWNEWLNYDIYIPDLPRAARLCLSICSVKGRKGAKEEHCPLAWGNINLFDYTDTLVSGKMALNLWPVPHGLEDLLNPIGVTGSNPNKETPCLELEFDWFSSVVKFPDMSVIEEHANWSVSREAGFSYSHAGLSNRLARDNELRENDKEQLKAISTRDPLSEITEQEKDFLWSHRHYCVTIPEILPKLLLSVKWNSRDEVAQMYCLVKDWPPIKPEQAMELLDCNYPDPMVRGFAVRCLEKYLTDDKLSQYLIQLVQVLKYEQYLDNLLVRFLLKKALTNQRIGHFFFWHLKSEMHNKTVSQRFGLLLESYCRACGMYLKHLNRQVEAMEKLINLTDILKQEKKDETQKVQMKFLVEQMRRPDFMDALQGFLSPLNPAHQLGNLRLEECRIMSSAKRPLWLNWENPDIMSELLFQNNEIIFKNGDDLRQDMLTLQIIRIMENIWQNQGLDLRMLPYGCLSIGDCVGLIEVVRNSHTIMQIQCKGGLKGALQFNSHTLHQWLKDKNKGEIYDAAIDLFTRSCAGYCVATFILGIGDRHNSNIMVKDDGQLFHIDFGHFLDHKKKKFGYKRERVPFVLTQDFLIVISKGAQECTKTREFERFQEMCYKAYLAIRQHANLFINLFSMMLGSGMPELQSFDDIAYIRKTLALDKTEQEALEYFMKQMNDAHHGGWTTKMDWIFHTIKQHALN
Chain of PI3Kα (P27986 whole entry partner, canonical isoform): as the sequence (P27986 whole entry partner, canonical isoform) above
Chain of PI3Kδ (O00329 whole entry, canonical isoform): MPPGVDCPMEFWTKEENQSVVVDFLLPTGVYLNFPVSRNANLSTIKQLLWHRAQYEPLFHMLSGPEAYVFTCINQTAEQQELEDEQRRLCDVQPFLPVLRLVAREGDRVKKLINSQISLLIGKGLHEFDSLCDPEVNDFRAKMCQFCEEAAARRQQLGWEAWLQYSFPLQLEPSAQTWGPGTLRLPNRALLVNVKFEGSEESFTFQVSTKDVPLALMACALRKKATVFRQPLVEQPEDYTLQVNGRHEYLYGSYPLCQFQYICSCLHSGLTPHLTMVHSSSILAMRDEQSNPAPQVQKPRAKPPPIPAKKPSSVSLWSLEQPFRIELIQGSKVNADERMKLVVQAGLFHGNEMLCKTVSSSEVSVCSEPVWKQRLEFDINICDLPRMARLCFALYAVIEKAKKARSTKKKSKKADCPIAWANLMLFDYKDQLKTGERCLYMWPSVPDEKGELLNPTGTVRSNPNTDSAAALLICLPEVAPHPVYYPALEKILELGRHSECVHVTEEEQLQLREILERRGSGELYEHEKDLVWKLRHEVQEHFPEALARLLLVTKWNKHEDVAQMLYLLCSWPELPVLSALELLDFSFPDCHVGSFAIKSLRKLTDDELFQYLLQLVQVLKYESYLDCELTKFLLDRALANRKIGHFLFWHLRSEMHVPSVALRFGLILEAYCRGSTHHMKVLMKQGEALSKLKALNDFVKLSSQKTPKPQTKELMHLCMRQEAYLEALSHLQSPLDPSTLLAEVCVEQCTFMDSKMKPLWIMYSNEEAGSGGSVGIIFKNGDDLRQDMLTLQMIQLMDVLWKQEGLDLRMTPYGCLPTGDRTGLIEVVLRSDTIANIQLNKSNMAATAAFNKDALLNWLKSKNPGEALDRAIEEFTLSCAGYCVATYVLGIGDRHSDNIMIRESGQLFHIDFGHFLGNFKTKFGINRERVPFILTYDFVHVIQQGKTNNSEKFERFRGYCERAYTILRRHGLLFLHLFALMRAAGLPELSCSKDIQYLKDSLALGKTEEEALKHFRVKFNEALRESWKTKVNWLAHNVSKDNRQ
Chain of PI3Kδ (P27986 whole entry partner, canonical isoform): as the sequence (P27986 whole entry partner, canonical isoform) above

COC(=O)Nc1cc(C(F)(F)F)c(-c2nc(N3CCOCC3)c3cc(CN4CCN(S(C)(=O)=O)CC4)c(C)n3n2)cn1 [Compound P-17]
IC50 (PI3Kβ): 912 nM | inhibition at 0.1 µM (PI3Kβ; read-out: IH (%) @ 100 nM, β): 16% | AUC(0-inf) [1, 3]: 3240 ng·h/mL | AUC(0-t) [1, 3]: 2990 ng·h/mL | clearance [1, 3]: 26.8 mL/min/kg | half-life [1, 3]: 2.1 h | MRT ([1]; male, SD, rat, plasma, iv, Mean, read-out: MRT): 2.71 h | Vd [1, 3]: 4.17 L/kg | AUC(0-inf) [1, 4]: 4190 ng·h/mL | AUC(0-t) [1, 4]: 3700 ng·h/mL | clearance [1, 4]: 19.8 mL/min/kg | half-life [1, 4]: 2.61 h | MRT ([1]; male, SD, rat, plasma, iv, individual animal, read-out: MRT): 3.53 h | Vd [1, 4]: 4.21 L/kg | AUC 0 − t ([1]; individual animal): 2564 ng·h/mL and 2711 ng·h/mL | AUC 0 − ∞ ([1]; individual animal): 2672 ng·h/mL and 2845 ng·h/mL | Cl ([1]; individual animal): 31.2 mL/min/kg and 29.3 mL/min/kg | MRT ([1]; individual animal): 2.13 h and 2.46 h | T1/2 ([1]; individual animal): 1.88 h and 1.82 h | Vss ([1]; individual animal): 3.98 L/kg and 4.33 L/kg | IC50 (PI3Kα): 76.2 nM | inhibition at 0.02 µM (PI3Kα; read-out: IH (%) @ 20 nM, α): 60.7% | IC50 (PI3Kδ): 75.2 nM | inhibition at 0.02 µM (PI3Kδ; read-out: IH (%) @ 20 nM, δ): 64.1% | IC50 (PI3Kγ): 290 nM | inhibition at 0.1 µM (PI3Kγ; compound 100 nM, read-out: IH (%) @ 100 nM, γ): 47% | half-life ([2]; male, SD, rat, plasma, oral, 10 mg/kg, 10 mg/kg, Mean, monomesylate): 2.77 h | half-life ([2]; male, SD, rat, plasma, oral, 10 mg/kg, 10 mg/kg, individual animal, monomesylate): 3.08 h | AUC(0-inf) ([2]; male, SD, rat, plasma, oral, 10 mg/kg, Mean, monomesylate): 6120 ng·h/mL | bioavailability ([2]; male, SD, rat, plasma, oral, 10 mg/kg versus 5 mg/kg intravenous, monomesylate, read-out: F (absolute bioavailability)): 95.8% | steady-state distribution volume Vss, average residence time MRT, half-life T½ and absolute bioavailability F compared with CYH33 (in words) ([2]; monomesylates): improved

Reference: patent US11214572B2, “7-site substituted pyrrole triazine compounds or pharmaceutically acceptable salts thereof, and preparation method thereof and uses thereof” (SHANGHAI INSTITUTE OF MATERIA MEDICA, CHINESE ACADEMY OF …, priority 2017, dated 2022)
